Data published in US20160250253A1, “STRONTIUM-CONTAINING COMPLEXES FOR TREATING GASTROESOPHAGEAL REFLUX AND BARRETT'S ESOPHAGUS” (priority 2013, published 2016).

Legend:
[1] = oral, 680 mg of elemental strontium per day; cited from earlier work
Helicobacter pylori = conditions: cited from earlier work
ulcer = conditions: cited from earlier work
acid-induced pain = assay: Double blind study of glycolic acid induced pain on the forearm; format: in vivo, human; conditions: 25% glycolic acid with or without 250 millimolar gallic acid, topical on forearm, pain rated 0-4 every minute for 10 minutes
Procedure: Briefly, in a double blind study, 25% glycolic acid solutions with or without 250 millimolar of gallic acid were applied to an 2×8 inch area of the forearm of the study participants. The pain level was assessed at time of application and every minute thereafter for 10 minutes. Study participants rated the pain levels on a 0-4 scale where 0 was no pain; 1 was slight pain; 2 was mild pain; 3 was moderate pain; and 4 was unbearable pain.

KCa 3.1 = KCa 3.1 (Homo sapiens, UniProt O15554); conditions: cited from earlier work
cancer cell lines = conditions: series of cancer cell lines; cited from earlier work
[2] = test system: esophageal cancer cells (TE-2); conditions: cited from earlier work
pain of sore throat = assay: Sore throat pain after gargling; format: in vivo; conditions: within several minutes after gargling, clinical observations
From the text: Since acidic material from the stomach is what causes the burning pain and inflammation in GER, it is hypothesized that strontium would be effective in treating GER.

[3] = test system: TCN activation by highly acidic chemical peels; assay: Burning pain from 70% glycolic acid, pH 0.6, applied to the skin; format: in vivo, human; conditions: strontium mixed with 70% glycolic acid
Procedure: Nociceptors also have a CaSR that inhibits nociceptor activation when the extracellular concentration of calcium is raised above normal, or if a similar concentration of strontium is administered. […] When strontium is mixed with the acid, burning pain and stinging is suppressed by 80% or more so that any remaining sensory irritation is not bothersome.

[4] = test system: burning pain due to 1% lactic acid; assay: Burning pain from 1% lactic acid instilled on the conjunctiva of the eye; format: in vivo; conditions: 1% lactic acid on the conjunctiva, pilot studies in humans
Type C nociceptors = assay: Substance P release by Type C nociceptors, unpublished animal studies; format: in vivo
From the text: As mentioned above, acid from the stomach activates many pathways that trigger pain and inflammation such as the release of substance P, neurokinin A, and CGRP. […] While the precise molecular mechanism by which strontium inhibits substance P release is unknown, it is believed that the release of substance P, neurokinin A and CGRP occur together and by the same or similar trigger mechanism.

[5] = test system: TCN activation by highly acidic chemical peels; conditions: topically applied, 70% glycolic acid, pH 0.6 on the skin, previous studies; cited from earlier work
[6] = test system: histamine-induced itching; conditions: topical; cited from earlier work
synaptotagmin-1 = conditions: strontium substitutes for calcium; cited from earlier work
CICR pathway = conditions: cited from earlier work

In the case of `N#Cc1c(N(CC(=O)[O-])CC(=O)[O-])sc(C(=O)[O-])c1CC(=O)[O-].[Sr+2].[Sr+2]` [strontium ranelate], the “fraction absorbed by the GI tract into the blood” value [1] is listed as “approximately 25%”.

For `O=C(O)C=Cc1ccccc1` [cinnamic acid], the H. pylori growth (Helicobacter pylori) is listed as “inhibition of H. pylori growth” and the ulcer-preventing properties (ulcer) is listed as “ulcer-preventing properties”.

For `O=C(O)c1cc(O)c(O)c(O)c1` [gallic acid, 3,4,5-trihydroxybenzoic acid], the acid induced pain (acid-induced pain) is listed as “effective in reducing or preventing the acid induced pain”, the “block of KCa 3.1” value (KCa 3.1) is listed as “does not block” and the cell proliferation (cancer cell lines) is listed as “significant inhibition of cell proliferation”. The apoptosis [2] was “induced apoptosis”, the H. pylori growth (Helicobacter pylori) was “inhibition of H. pylori growth” and the ulcer-preventing properties (ulcer) was “ulcer-preventing properties”.

In the case of `[Cl-].[Cl-].[Sr+2]` [strontium chloride solution, strontium chloride], the “pain of sore throat” value (pain of sore throat) is reported as “greatly relieved, if not eliminated”.

For `[Sr+2]` [strontium], the “suppression of burning pain and stinging” value [3] was at least 80%, the burning pain [4] was “inhibit burning pain” and the “substance P release” value (Type C nociceptors) was “inhibit substance P release”. For the same compound, the intense burning pain [5] was “virtually abolish”, the injected histamine-induced itching [6] was “significantly inhibited” and the “reduction of amplitude of synchronous neurotransmitter release” value (synaptotagmin-1) was over 90%. For the same compound, the “ability to induce CICR relative to calcium” value (CICR pathway) was “over a hundred-fold less active than calcium”, the “concentration in the ER relative to calcium” value (CICR pathway; greater than calcium) was “more than 150%” and the “fraction absorbed by the GI tract into the blood” value [1] was “approximately 25%”.
